The values below come from US12357629B2, “Uses of BCL-2 antagonists for treating cancer and diagnostics related thereto” (Emory University, priority 2018, dated 2025).

The test system of data set [1] is ABT-199 resistant MM lines (KMS11, L363, RPMI-8226, MM.1S, U266). The protocol:
Complex I inhibition with piercidin or SDHA inhibition with 3-NPA. L363, MM.15 and KMS 11 cells were cultured in the presence or absence of 0.S μM ABT-199 with or without either Complex I inhibitor piericidin (0.001 mM) or Complex II inhibitor 3NPA (1 mM) or TTFA (100 μM) for 24 hrs.
KMS11, L363, RPMI-8226, MM.1S, U266 (ABT-199 resistant cell lines) and KMS12PE and OCIMY5 (ABT-199 sensitive cell lines) were cultured in presence of SQR inhibitor TTFA (100 uM) or DEX (0.5 uM) either alone or in combination with ABT-199 (0.5 uM) for 24 hrs. Cell viability was assessed by Annexin V-DAPI staining and Flow cytometry.
Resistant MM lines were treated with TTFA and/or a dose range of ABT-199 and cell death evaluated by Annexin V/DAPI staining.

The subject of data set [2] is normal cell populations contained within the bone marrow aspirate of patient sample. The data set is described as follows: Cytotoxicity in normal cells within myeloma patient sample. The class given is cell-based. An excerpt: Synthetic lethality are not cytotoxic as a single agent in cell lines or primary normal cells associated with a myeloma patient sample.
The subject of data set [3] is MM patients exhibiting the (11;14) translocation. The note with it: t(11;14) patients, cited from earlier work.
In data set [4] the test system is CD38+ve MM cells from myeloma patient samples. The data set is described as follows: Cytotoxicity in myeloma patient sample cells. It is filed as cell-based, human. The note with it: TTFA with ABT-199.
The test system of data set [5] is BIM, BIM-Bcl-2 binding, Foxo3a. Description: Protein expression and co-immunoprecipitation analyses upon SDH inhibition. It is filed as cell-based. The text has this: Thus, a tumor selective approach of metabolically-driven synthetic lethality relies on inhibition of the mitochondrial enzyme SDH and use of the Bcl-2 antagonist, e.g., ABT-199 for myeloma therapy.

The target of data set [6] is Complex II/SDH succinate ubiquinone reductase (SQR) activity (Homo sapiens, UniProt O14521+P21912+P31040+Q99643). Description: SQR (succinate ubiquinone reductase) activity assay in permeabilized cells, DCPIP absorbance at 600 nm. The note with it: for SQR activity upon addition of inhibitor: KMS11 cells, 20 mM succinate as substrate, malonate 5 mM.
Experimental: Cells are resuspended in permeabilization buffer (10 mM KH2PO4 pH 7.8, 2 mM EDTA and 1 mg/ml BSA). 20 mM succinate is added as a substrate with or without 5 mM malonate (an SDH inhibitor) followed by a 10 min incubation at RT. SQR activity is determined by measuring electron transfer from succinate to decylubiquinone and 2,6-dichlorophenolindophenol (DCPIP) that leads to a change in absorbance of DCPIP monitored at 600 nm for 10 min.
SQR activity is measured in live permeabilized cells, with intact mitochondria by pre-treating with inhibitors of Complex I (rotenone) and Complex III (antimycin) leaving Complex II/SDH activity intact. SQR activity correlates with electron transfer from ubiquinone bound in SQR's Qp site to the redox sensitive dye, DCIPIP.
[7] abbreviates: ABT-199 0.5 μM with TTFA 100 μM, piericidin 0.001 mM or 3NPA 1 mM, 24 hrs, Annexin V/DAPI.

Entries after “also recorded” stand apart in the source; their conditions may differ. Like-named read-outs stand apart in the source and are kept apart here.

Chain of Complex II/SDH succinate ubiquinone reductase (SQR) activity (P31040 43-664): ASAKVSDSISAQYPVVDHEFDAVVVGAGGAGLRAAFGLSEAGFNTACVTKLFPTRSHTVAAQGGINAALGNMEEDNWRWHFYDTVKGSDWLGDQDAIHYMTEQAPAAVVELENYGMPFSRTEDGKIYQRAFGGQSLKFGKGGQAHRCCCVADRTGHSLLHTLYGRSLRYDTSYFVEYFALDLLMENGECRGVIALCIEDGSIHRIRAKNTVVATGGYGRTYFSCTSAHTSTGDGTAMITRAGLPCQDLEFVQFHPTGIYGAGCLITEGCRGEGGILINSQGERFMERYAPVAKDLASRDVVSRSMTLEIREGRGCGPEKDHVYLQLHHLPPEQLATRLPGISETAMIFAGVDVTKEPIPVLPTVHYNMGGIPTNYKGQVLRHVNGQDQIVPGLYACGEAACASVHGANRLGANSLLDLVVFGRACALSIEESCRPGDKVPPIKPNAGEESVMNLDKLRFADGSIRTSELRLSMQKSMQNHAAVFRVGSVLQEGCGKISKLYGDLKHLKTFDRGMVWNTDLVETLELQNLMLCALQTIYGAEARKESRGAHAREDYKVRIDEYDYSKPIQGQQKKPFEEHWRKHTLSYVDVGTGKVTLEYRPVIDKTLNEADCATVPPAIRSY
Chain of Complex II/SDH succinate ubiquinone reductase (SQR) activity (P21912 29-280): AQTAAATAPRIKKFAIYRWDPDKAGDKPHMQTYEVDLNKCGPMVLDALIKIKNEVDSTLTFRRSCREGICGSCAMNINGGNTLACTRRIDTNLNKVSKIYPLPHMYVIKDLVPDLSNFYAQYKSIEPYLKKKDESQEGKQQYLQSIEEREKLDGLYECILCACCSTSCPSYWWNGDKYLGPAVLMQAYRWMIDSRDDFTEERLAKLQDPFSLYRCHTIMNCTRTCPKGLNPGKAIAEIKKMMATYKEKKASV
Chain of Complex II/SDH succinate ubiquinone reductase (SQR) activity (Q99643 30-169): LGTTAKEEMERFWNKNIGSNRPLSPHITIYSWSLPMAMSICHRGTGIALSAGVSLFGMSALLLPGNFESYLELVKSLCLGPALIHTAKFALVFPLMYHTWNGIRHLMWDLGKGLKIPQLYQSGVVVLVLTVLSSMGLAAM
Chain of Complex II/SDH succinate ubiquinone reductase (SQR) activity (O14521 57-159): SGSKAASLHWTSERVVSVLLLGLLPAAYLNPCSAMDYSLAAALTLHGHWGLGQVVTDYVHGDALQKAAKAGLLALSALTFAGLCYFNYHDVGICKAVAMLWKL

`O=C(O)CC[N+](=O)[O-]` [3-NPA]: the “Sensitization of resistant MM cell lines to ABT-199” value in data set [1] (setting [7]) is “not as effective”; in data set [1] (ABT-199 0.5 μM with TTFA 100 μM, piericidin 0.001 mM or 3NPA 1 mM, 24 hrs, Annexin V/DAPI, listed as 3NPA), “not as effective as TTFA”.

Turning to `CC1(C)CCC(CN2CCN(c3ccc(C(=O)NS(=O)(=O)c4ccc(NCC5CCOCC5)c([N+](=O)[O-])c4)c(Oc4cnc5[nH]ccc5c4)c3)CC2)=C(c2ccc(Cl)cc2)C1` [ABT-199, 4-(4-{[2-(4-chlorophenyl)-4,4-dimethylcyclohex-1-en-1-yl]methyl}piperazin-1-yl)-N-({3-nitro-4-[(tetrahydro-2H-pyran-4-ylmethyl)amino]phenyl}sulfonyl)-2-(1H-pyrrolo[2,3-b]pyridin-5-yloxy)benzamide], the “Cytotoxicity as single agent in MM” value in data set [1] (individually) is “did not elicit cytotoxicity”. Also, in data set [2] (bone marrow aspirate of patient sample #2), the “Cytotoxicity in normal cells of myeloma patient sample” value is on record as “did not exhibit significant cytotoxicity”. Also, the “Share of t(11;14) MM patients responsive to single agent” value in data set [3] (listed as venetoclax) was “About 40%”; in data set [3], 40%.

For `O=C(CC(=O)C(F)(F)F)c1cccs1` [TTFA, 4,4,4-trifluoro-1-(thiophen-2-yl)butane-1,3-dione], in data set [1], the “Cytotoxicity as single agent in MM” value was “did not elicit cytotoxicity” and the “Sensitization of resistant MM cell lines to ABT-199” value is listed as “potent sensitization; also recorded: sensitizes MM cells to ABT-199; also recorded: sensitized resistant MM cells to ABT-199”. The “Effect on Dex-induced death” value in data set [1] (TTFA 100 uM, DEX 0.5 uM, ABT-199 0.5 uM, 24 hrs) is recorded as “additive to Dex-induced death”. Moreover, in data set [4], the “Sensitization of MM patient cells to ABT-199” value is “potent sensitization; also recorded: sensitizes”. Besides, the “Cytotoxicity in normal cells of myeloma patient sample” value in data set [2] is reported as “did not exhibit significant cytotoxicity”. In data set [5] (SDH inhibition with TTFA), the BIM expression result was “induction of BIM” and the “BIM-Bcl-2 binding (co-immunoprecipitation)” value is listed as “enhanced BIM-Bcl-2 binding”. Further, in data set [5] (TTFA treated cells), the Foxo3a localization entry is given as “nuclear localization” and the Foxo3a phosphorylation result is listed as “reduction of Foxo3a phosphorylation”. Moreover, the “SQR activity upon addition of inhibitor” value in data set [6] is recorded as “lack of activity”. Further, the “SQR activity at maximal dose of TTFA that did not cause cytotoxicity in MM” value in data set [6] (MM cells) is on record as “inhibited SQR activity”.

Turning to `COc1[nH]c(=O)c(C(=O)C(C)CC(C)C(Cl)CCl)c(O)c1OC` (centres unmarked) [atpenin A5, 3-[5,6-dichloro-2,4-dimethylhexanoyl]-4-hydroxy-5,6-dimethoxy-1H-pyridin-2-one], in data set [1] (setting [7]), the “Sensitization of resistant MM cell lines to ABT-199” value is recorded as “sensitizes resistant cell lines”.

With `C/C=C(\C)[C@H](O)[C@H](C)/C=C(C)/C=C/C/C(C)=C/Cc1nc(OC)c(OC)c(O)c1C` [piericidin], the “Sensitization of resistant MM cell lines to ABT-199” value in data set [1] (setting [7]) was “not as effective”.

Consider malonate, for which the “SQR activity upon addition of inhibitor” value in data set [6] is “lack of activity”.
